Experimental data: paper PMC6691788, “Design and synthesis of phthalazine-based compounds as potent anticancer agents with potential antiangiogenic activity via VEGFR-2 inhibition” (Journal of Enzyme Inhibition and Medicinal Chemistry, 2019)

Key:
OVCAR-8 = test: NCI 60 cell panel SRB screen; type: cell-based; settings: Homo sapiens
K-562 = test: NCI 60 cell panel SRB screen; type: cell-based; settings: Homo sapiens, K562
UACC-62 = test: NCI 60 cell panel SRB screen; type: cell-based
DU-145 = test: NCI 60 cell panel SRB screen; type: cell-based; settings: Homo sapiens
SW-620 = test: NCI 60 cell panel SRB screen; type: cell-based; settings: Homo sapiens
OVCAR-3 = test: NCI 60 cell panel SRB screen; type: cell-based; settings: Homo sapiens
HCT-116 = test: NCI 60 cell panel SRB screen; type: cell-based; settings: Homo sapiens
SF-268 = test: NCI 60 cell panel SRB screen; type: cell-based; settings: Homo sapiens
SR = test: NCI 60 cell panel SRB screen; type: cell-based; settings: Homo sapiens
MALME-3M = test: NCI 60 cell panel SRB screen; type: cell-based; settings: Homo sapiens
SF-295 = test: NCI 60 cell panel SRB screen; type: cell-based; settings: Homo sapiens
SK-MEL-5 = test: NCI 60 cell panel SRB screen; type: cell-based; settings: Homo sapiens
A549/ATCC = test: NCI 60 cell panel SRB screen; type: cell-based; settings: Homo sapiens
786-0 = test: NCI 60 cell panel SRB screen; type: cell-based; settings: Homo sapiens
CCRF-CEM = test: NCI 60 cell panel SRB screen; type: cell-based, human
HOP-62 = test: NCI 60 cell panel SRB screen; type: cell-based; settings: Homo sapiens
UACC-257 = test: NCI 60 cell panel SRB screen; type: cell-based; settings: Homo sapiens
VEGFR-2 tyrosine kinase = molecular target: T1, VEGFR-2 tyrosine kinase (Homo sapiens, UniProt P35968); test: In vitro VEGFR-2 tyrosine kinase assay (BPS Bioscience); type: biochemical; settings: read-out: VEGFR-2 % inhibition; 10 μM concentration
T1 construct: purchased BPS Bioscience 40301
In short: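 For IC50, ADP formation after a 30-min 30 °C reaction was detected by ADP-Glo luminescence in duplicate, blank-subtracted and fitted as log inhibitor versus normalised response. The 10 µM single-dose test instead measured remaining ATP (Kinase-Glo Plus) after 40 min at 30 °C with poly(Glu,Tyr) substrate, 10 μM ATP, pH 7.4, 1% DMSO.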

RPMI-8226 = test: NCI 60 cell panel SRB screen; type: cell-based; settings: Homo sapiens
M14 = test: NCI 60 cell panel SRB screen; type: cell-based; settings: Homo sapiens
[1] = single dose 10 μM, read-out: percent cell growth promotion

T1 sequence (P35968 20-1356): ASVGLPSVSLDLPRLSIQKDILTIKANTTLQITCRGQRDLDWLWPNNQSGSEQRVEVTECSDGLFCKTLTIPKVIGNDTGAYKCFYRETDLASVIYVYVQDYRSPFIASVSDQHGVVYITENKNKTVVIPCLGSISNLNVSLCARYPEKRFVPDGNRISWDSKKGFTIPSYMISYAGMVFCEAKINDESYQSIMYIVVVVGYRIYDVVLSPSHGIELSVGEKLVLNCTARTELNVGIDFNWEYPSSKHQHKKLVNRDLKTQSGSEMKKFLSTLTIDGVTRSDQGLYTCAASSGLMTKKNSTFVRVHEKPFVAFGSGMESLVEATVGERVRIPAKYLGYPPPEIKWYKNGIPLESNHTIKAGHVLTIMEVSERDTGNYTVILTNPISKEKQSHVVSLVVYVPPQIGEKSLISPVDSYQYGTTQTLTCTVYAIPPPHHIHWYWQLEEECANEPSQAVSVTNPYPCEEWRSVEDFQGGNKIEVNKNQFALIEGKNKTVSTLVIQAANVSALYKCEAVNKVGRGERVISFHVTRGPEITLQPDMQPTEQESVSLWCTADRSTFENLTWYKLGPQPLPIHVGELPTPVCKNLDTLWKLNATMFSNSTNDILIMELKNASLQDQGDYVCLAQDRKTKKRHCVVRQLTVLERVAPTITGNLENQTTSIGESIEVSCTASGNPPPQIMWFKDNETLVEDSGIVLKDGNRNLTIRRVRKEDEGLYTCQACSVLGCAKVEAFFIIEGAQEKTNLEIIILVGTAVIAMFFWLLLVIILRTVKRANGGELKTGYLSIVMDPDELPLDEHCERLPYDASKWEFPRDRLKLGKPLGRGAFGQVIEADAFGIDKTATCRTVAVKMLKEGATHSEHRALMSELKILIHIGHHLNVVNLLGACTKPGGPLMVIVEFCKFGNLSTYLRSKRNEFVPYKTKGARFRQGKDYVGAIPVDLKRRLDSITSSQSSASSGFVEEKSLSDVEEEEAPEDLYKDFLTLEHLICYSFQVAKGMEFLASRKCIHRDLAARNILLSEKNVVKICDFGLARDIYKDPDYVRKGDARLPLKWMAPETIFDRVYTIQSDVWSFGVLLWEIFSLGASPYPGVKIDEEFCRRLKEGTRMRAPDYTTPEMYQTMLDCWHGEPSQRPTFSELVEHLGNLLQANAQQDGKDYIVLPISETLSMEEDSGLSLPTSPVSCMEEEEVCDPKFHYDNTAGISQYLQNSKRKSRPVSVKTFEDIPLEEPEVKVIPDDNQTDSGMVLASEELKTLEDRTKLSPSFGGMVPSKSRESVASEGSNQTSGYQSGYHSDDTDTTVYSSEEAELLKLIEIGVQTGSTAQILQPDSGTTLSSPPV

Clc1ccc(Nc2nnc(CNc3ccccc3)c3ccccc23)cc1 [Compound 16a, N-(4-Chlorophenyl)-4-((phenylamino)methyl)phthalazin-1-amine]
GI50 (OVCAR-8; OVCAR-8, 5 log dose): 4.63 µM | IC (TGI) (OVCAR-8; OVCAR-8, 5 log dose): 16.8 µM | CC50 (OVCAR-8; OVCAR-8, 5 log dose, 48 h, read-out: LC50 (the source's name)): > 25 µM | activity at 10 µM (OVCAR-8; OVCAR-8, single dose 10 μM, read-out: percent cell growth promotion): 18.2% | GI50 (K-562; K-562, 5 log dose): 1.71 µM | IC (TGI) (K-562; K-562, 5 log dose): 14.5 µM | CC50 (K-562; K-562, 5 log dose, 48 h, read-out: LC50 (the source's name)): > 25 µM | activity at 10 µM (K-562; K-562, single dose 10 μM, read-out: percent cell growth promotion): 5.39% | GI50 (UACC-62; Homo sapiens, UACC-62): 1.25 µM | activity at 10 µM (UACC-62; Homo sapiens, UACC-62, read-out: percent cell growth promotion): 8.47% | CC50 (UACC-62; Homo sapiens, UACC-62, 5 log dose, 48 h, read-out: LC50 (the source's name)): 19 µM | TGI (UACC-62; UACC-62, 5 log dose): 5.70 µM | GI50 (DU-145; DU-145, 5 log dose): > 25 µM | IC (TGI) (DU-145; DU-145, 5 log dose): > 25 µM | CC50 (DU-145; DU-145, 5 log dose, 48 h, read-out: LC50 (the source's name)): > 25 µM | activity at 10 µM (DU-145; DU-145, single dose 10 μM, read-out: percent cell growth promotion): 19% | GI50 (SW-620; SW-620, 5 log dose): 3.84 µM | IC (TGI) (SW-620; SW-620, 5 log dose): 11.1 µM | CC50 (SW-620; SW-620, 5 log dose, 48 h, read-out: LC50 (the source's name)): > 25 µM | activity at 10 µM (SW-620; SW-620, single dose 10 μM, read-out: percent cell growth promotion): 30.8% | GI50 (OVCAR-3; OVCAR-3, 5 log dose): 3.51 µM | IC (TGI) (OVCAR-3; OVCAR-3, 5 log dose): 8.69 µM | CC50 (OVCAR-3; OVCAR-3, 5 log dose, 48 h, read-out: LC50 (the source's name)): 21.5 µM | activity at 10 µM (OVCAR-3; OVCAR-3, single dose 10 μM, read-out: percent cell growth promotion): -1.64% | GI50 (HCT-116; HCT-116, 5 log dose): 1.2 µM | IC (TGI) (HCT-116; HCT-116, 5 log dose): 5.02 µM | LC50 (lethal concentration 50%) (HCT-116; HCT-116, 5 log dose, 48 h): 13.3 µM | activity at 10 µM (HCT-116; HCT-116, single dose 10 μM, read-out: percent cell growth promotion): 9.94% | GI50 (SF-268; SF-268, 5 log dose): 3.28 µM | IC (TGI) (SF-268; SF-268, 5 log dose): 14.5 µM | CC50 (SF-268; SF-268, 5 log dose, 48 h, read-out: LC50 (the source's name)): > 25 µM | activity at 10 µM (SF-268; SF-268, single dose 10 μM, read-out: percent cell growth promotion): 20.9% | GI50 (SR; 5 log dose): 1.75 µM | IC (TGI) (SR; 5 log dose): 12.3 µM | CC50 (SR; 5 log dose, 48 h, read-out: LC50 (the source's name)): > 25 µM | activity at 10 µM (SR; [1]): -9.19% | GI50 (MALME-3M; Malme-3M): 2.66 µM | IC (TGI) (MALME-3M; Malme-3M, read-out: TGI): 9.92 µM | activity at 10 µM (MALME-3M; Malme-3M, read-out: percent cell growth promotion): -13.8% | CC50 (MALME-3M; MALME-3M, 5 log dose, 48 h, read-out: LC50 (the source's name)): > 25 µM | GI50 (SF-295; SF-295, 5 log dose): 2.98 µM | IC (TGI) (SF-295; SF-295, 5 log dose): 8.77 µM | CC50 (SF-295; SF-295, 5 log dose, 48 h, read-out: LC50 (the source's name)): > 25 µM | activity at 10 µM (SF-295; SF-295, single dose 10 μM, read-out: percent cell growth promotion): 14.3% | GI50 (SK-MEL-5; SK-MEL-5): 2.08 µM | IC (TGI) (SK-MEL-5; SK-MEL-5, read-out: TGI): 5.27 µM | activity at 10 µM (SK-MEL-5; SK-MEL-5, read-out: percent cell growth promotion): -69.1% | CC50 (SK-MEL-5; SK-MEL-5, 5 log dose, 48 h, read-out: LC50 (the source's name)): 11.8 µM | GI50 (A549/ATCC; 5 log dose): 3.17 µM | IC (TGI) (A549/ATCC; 5 log dose): 20 µM | LC50 (concentration killing 50% of cells) (A549/ATCC; 5 log dose, 48 h): > 25 µM | activity at 10 µM (A549/ATCC; [1]): 20.3% | GI50 (786-0; 786-0, 5 log dose): 4.01 µM | IC (TGI) (786-0; 786-0, 5 log dose): 12.5 µM | CC50 (786-0; 786-0, 5 log dose, 48 h, read-out: LC50 (the source's name)): > 25 µM | activity at 10 µM (786-0; 786-0, single dose 10 μM, read-out: percent cell growth promotion): 21.4% | TGI (CCRF-CEM; 5 log dose): 17.6 µM | GI50 (CCRF-CEM; Homo sapiens, 5 log dose): 3.53 µM | CC50 (CCRF-CEM; Homo sapiens, 5 log dose, 48 h, read-out: LC50 (the source's name)): > 25 µM | activity at 10 µM (CCRF-CEM; Homo sapiens, single dose 10 μM, read-out: percent cell growth promotion): 12.4% | GI50 (HOP-62; HOP-62, 5 log dose): 2.86 µM | IC (TGI) (HOP-62; HOP-62, 5 log dose): 8.84 µM | CC50 (HOP-62; HOP-62, 5 log dose, 48 h, read-out: LC50 (the source's name)): > 25 µM | activity at 10 µM (HOP-62; HOP-62, single dose 10 μM, read-out: percent cell growth promotion): 27.4% | GI50 (UACC-257; UACC-257): 2.74 µM | IC (TGI) (UACC-257; UACC-257, read-out: TGI): 6.87 µM | activity at 10 µM (UACC-257; UACC-257, read-out: percent cell growth promotion): -6.49% | CC50 (UACC-257; UACC-257, 5 log dose, 48 h, read-out: LC50 (the source's name)): 17.2 µM | inhibition at 10 µM (VEGFR-2 tyrosine kinase): 47% | GI50 (RPMI-8226; RPMI-8226, 5 log dose): 2.1 µM | IC (TGI) (RPMI-8226; RPMI-8226, 5 log dose): 7.71 µM | CC50 (RPMI-8226; RPMI-8226, 5 log dose, 48 h, read-out: LC50 (the source's name)): > 25 µM | activity at 10 µM (RPMI-8226; RPMI-8226, single dose 10 μM, read-out: percent cell growth promotion): 3.35% | GI50 (M14; M14): 1.74 µM | IC (TGI) (M14; M14, read-out: TGI): 6.65 µM | activity at 10 µM (M14; M14, read-out: percent cell growth promotion): 5.8% | CC50 (M14; M14, 5 log dose, 48 h, read-out: LC50 (the source's name)): 20.6 µM
